Here are results for 14 compounds from patent US8476265B2, “Compounds-801” (AstraZeneca AB, priority 2010, dated 2013).

Assay [1] concerns the target T1, human muscarinic acetylcholine M3 receptor (Homo sapiens, UniProt P20309).
T1 construct: expressed in transfected cells; host or cells: CHO-K1 (Chinese Hamster Ovary) cell membranes
The assay is described as follows: Muscarinic 3 receptor binding assay ([3H]NMS competition, SPA), pIC50. To be noted: [3H]NMS 0.1 nM, CHO-K1 cell membranes expressing human M3 receptor. A digest of the protocol: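 SPA beads precoated with human M3-expressing CHO-K1 membranes were incubated 16 h at room temperature with serially diluted compound and 0.1 nM [3H]NMS (pH 7.4 HEPES buffer, MgCl2, BSA, 1% DMSO). Atropine (1 μM) defined non-specific binding; pIC50 is the 50% reduction in specific binding.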

In assay [2] the target is T2, Adrenergic β2 (Homo sapiens, UniProt P07550).
T2 construct: Adherent H292 cells are removed from tissue culture flasks by treatment with Accutase™ cell detachment solution; endogenous in cells; host or cells: H292 cells
T2 sequence (P07550 whole entry): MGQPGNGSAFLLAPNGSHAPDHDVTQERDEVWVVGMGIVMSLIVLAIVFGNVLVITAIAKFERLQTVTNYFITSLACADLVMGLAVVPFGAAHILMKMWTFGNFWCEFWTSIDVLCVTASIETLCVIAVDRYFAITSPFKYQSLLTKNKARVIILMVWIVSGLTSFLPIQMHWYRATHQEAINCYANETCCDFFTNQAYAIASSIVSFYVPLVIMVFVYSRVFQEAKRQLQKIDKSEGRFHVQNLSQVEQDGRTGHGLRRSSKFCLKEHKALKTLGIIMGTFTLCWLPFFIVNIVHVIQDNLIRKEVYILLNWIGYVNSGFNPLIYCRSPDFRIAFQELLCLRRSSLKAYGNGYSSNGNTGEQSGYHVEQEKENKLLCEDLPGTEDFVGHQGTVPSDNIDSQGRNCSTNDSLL
The assay is described as follows: Adrenergic β2 mediated cAMP production in H292 cells (AlphaScreen), concentration response. Format: cell-based. To be noted: for EC50: 60 min, 300 μM rolipram, read-out: β2 pEC50 (converted); for β2 Intrinsic Activity: fraction relative to the maximum activity determined for formoterol. A digest of the protocol:
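Intracellular cAMP in lysates read by AlphaScreen, calibrated with cAMP standards; curves fitted for pEC50, with intrinsic activity as a fraction of formoterol's maximum. Agonist exposure 60 min at room temperature after 10 min rolipram (300 μM final), 1% DMSO, HEPES-buffered HBSS pH 7.4.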

Molecules are shown by their SMILES. Bounds are passed on as bounds.

T1 sequence (P20309 whole entry): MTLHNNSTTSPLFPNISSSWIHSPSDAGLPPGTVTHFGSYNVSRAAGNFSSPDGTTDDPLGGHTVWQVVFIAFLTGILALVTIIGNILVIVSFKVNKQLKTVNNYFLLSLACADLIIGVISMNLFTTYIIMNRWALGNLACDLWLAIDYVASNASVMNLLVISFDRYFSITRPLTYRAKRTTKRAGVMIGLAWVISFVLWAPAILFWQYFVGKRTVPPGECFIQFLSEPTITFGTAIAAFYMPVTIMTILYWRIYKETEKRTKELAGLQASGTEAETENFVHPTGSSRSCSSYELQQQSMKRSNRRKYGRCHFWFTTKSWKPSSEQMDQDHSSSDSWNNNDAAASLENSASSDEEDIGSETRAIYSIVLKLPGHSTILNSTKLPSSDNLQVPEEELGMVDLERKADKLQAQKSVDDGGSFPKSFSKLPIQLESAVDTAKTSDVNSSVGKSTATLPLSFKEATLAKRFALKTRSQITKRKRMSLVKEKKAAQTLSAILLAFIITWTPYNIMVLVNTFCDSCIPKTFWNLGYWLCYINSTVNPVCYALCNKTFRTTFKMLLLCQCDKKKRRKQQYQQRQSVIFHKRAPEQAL

`CC(C)c1nc(C(=O)N2CCOC3(CCN(Cc4cccc(SCCCOCCC(=O)N(CCNCCc5ccc(O)c6c5OCC(=O)N6)C5CCCC5)c4)CC3)C2)cs1` [Example 54, N-Cyclopentyl-N-(2-(2-(5-hydroxy-3-oxo-3,4-dihydro-2H-benzo[b][1,4]oxazin-8-yl)ethylamino)ethyl)-3-(3-(3-((4-(2-isopropylthiazole-4-carbonyl)-1-oxa-4,9-diazaspiro[5.5]undecan-9-yl)methyl)phenylthio)propoxy)propanamide ditrifluoroacetate] had an IC50 in assay [1] of 0.1 nM. Further, in assay [2], the EC50 is 100 nM and the “β2 Intrinsic Activity” value is recorded as 0.9.
Compound `CC(C)c1nc(C(=O)N2CCOC3(CCN(Cc4cccc(SCCOCCC(=O)N(C)CCNCCc5ccc(O)c6[nH]c(=O)sc56)c4)CC3)C2)cs1` [Example 55, N-(2-(2-(4-Hydroxy-2-oxo-2,3-dihydrobenzo[d]thiazol-7-yl)ethylamino)ethyl)-3-(2-(3-((4-(2-isopropylthiazole-4-carbonyl)-1-oxa-4,9-diazaspiro[5.5]undecan-9-yl)methyl)phenylthio)ethoxy)-N-methylpropanamide ditrifluoroacetate] gave an IC50 in assay [1] of 0.126 nM. Moreover, in assay [2], the EC50 is 100 nM and the “β2 Intrinsic Activity” value is listed as 0.6.
The compound `CC(C)c1nc(C(=O)N2CCOC3(CCN(Cc4csc(CCOCCC(=O)N(CCNCCc5ccc(O)c6c5OCC(=O)N6)C5CCCCC5)c4)CC3)C2)cs1` [Example 56, N-Cyclohexyl-N-(2-(2-(5-hydroxy-3-oxo-3,4-dihydro-2H-benzo[b][1,4]oxazin-8-yl)ethylamino)ethyl)-3-(2-(4-((4-(2-isopropylthiazole-4-carbonyl)-1-oxa-4,9-diazaspiro[5.5]undecan-9-yl)methyl)thiophen-2-yl)ethoxy)propanamide ditrifluoroacetate] gave an IC50 in assay [1] of 0.0631 nM. In assay [2], the EC50 is 200 nM and the “β2 Intrinsic Activity” value stood at 1.2.
As to `CC(C)c1nc(C(=O)N2CCOC3(CCN(Cc4cccc(CCCOCCC(=O)N(CCNCCc5ccc(O)c6c5OCC(=O)N6)C5CCCCC5)c4)CC3)C2)cs1` [Example 57, N-Cyclohexyl-N-(2-(2-(5-hydroxy-3-oxo-3,4-dihydro-2H-benzo[b][1,4]oxazin-8-yl)ethylamino)ethyl)-3-(3-(3-((4-(2-isopropylthiazole-4-carbonyl)-1-oxa-4,9-diazaspiro[5.5]undecan-9-yl)methyl)phenyl)propoxy)propanamide ditrifluoroacetate], the IC50 in assay [1] was < 0.0501 nM. Also, in assay [2], the EC50 is 316 nM and the “β2 Intrinsic Activity” value came out at 0.9.
The corresponding values for `CC(C)c1nc(C(=O)N2CCOC3(CCN(Cc4cccc(CCCCOCCC(=O)N(CCNCCc5ccc(O)c6c5OCC(=O)N6)C5CCCCC5)c4)CC3)C2)cs1` [Example 58, N-Cyclohexyl-N-(2-(2-(5-hydroxy-3-oxo-3,4-dihydro-2H-benzo[b][1,4]oxazin-8-yl)ethylamino)ethyl)-3-(4-(3-((4-(2-Isopropylthiazole-4-carbonyl)-1-oxa-4,9-diazaspiro[5.5]undecan-9-yl)methyl)phenyl)butoxy)propanamide ditrifluoroacetate] are 0.0631 nM, 100 nM and 0.9.
Take `CC(C)c1nc(C(=O)N2CCOC3(CCN(Cc4cccc(OCCOCCC(=O)N(CCNCCc5ccc(O)c6c5OCC(=O)N6)C5CCCCC5)c4)CC3)C2)cs1` [Example 59, N-Cyclohexyl-N-(2-(2-(5-hydroxy-3-oxo-3,4-dihydro-2H-benzo[b][1,4]oxazin-8-yl)ethylamino)ethyl)-3-(2-(3-((4-(2-isopropylthiazole-4-carbonyl)-1-oxa-4,9-diazaspiro[5.5]undecan-9-yl)methyl)phenoxy)ethoxy)propanamide ditrifluoroacetate]: in assay [1], the IC50 is 0.251 nM. Further, in assay [2], the EC50 was 631 nM and the “β2 Intrinsic Activity” value was 0.9.
The corresponding values for `CC(C)c1nc(C(=O)N2CCOC3(CCN(Cc4cccc(OCCCOCCC(=O)N(CCNCCc5ccc(O)c6c5OCC(=O)N6)C5CCCCC5)c4)CC3)C2)cs1` [Example 60, N-Cyclohexyl-N-(2-(2-(5-hydroxy-3-oxo-3,4-dihydro-2H-benzo[b][1,4]oxazin-8-yl)ethylamino)ethyl)-3-(3-(3-((4-(2-isopropylthiazole-4-carbonyl)-1-oxa-4,9-diazaspiro[5.5]undecan-9-yl)methyl)phenoxy)propoxy)propanamide ditrifluoroacetate] are 0.2 nM, 50.1 nM and 0.7.
Take `CCN(CCNCCc1ccc(O)c2[nH]c(=O)sc12)C(=O)CCOCCc1cccc(OCCCN2CCC3(CC2)CN(C(=O)c2csc(C(C)C)n2)CCO3)c1` [Example 61, N-Ethyl-N-(2-(2-(4-hydroxy-2-oxo-2,3-dihydrobenzo[d]thiazol-7-yl)ethylamino)ethyl)-3-(3-(3-(4-(2-isopropylthiazole-4-carbonyl)-1-oxa-4,9-diazaspiro[5.5]undecan-9-yl)propoxy)phenethoxy)propanamide ditrifluoroacetate]: the half-inhibitory concentration (IC50) in assay [1] is 2 nM. For the same compound, in assay [2], the EC50 is 20 nM and the “β2 Intrinsic Activity” value was 0.7.
Compound `CCN(CCNCCc1ccc(O)c2[nH]c(=O)sc12)C(=O)CCOCCc1ccc(OCCCN2CCC3(CC2)CN(C(=O)c2csc(C(C)C)n2)CCO3)cc1` [Example 62, N-Ethyl-N-(2-(2-(4-hydroxy-2-oxo-2,3-dihydrobenzo[d]thiazol-7-yl)ethylamino)ethyl)-3-(4-(3-(4-(2-isopropylthiazole-4-carbonyl)-1-oxa-4,9-diazaspiro[5.5]undecan-9-yl)propoxy)phenethoxy)propanamide ditrifluoroacetate] gave an IC50 in assay [1] of 0.794 nM. Also, in assay [2], the EC50 was 100 nM and the “β2 Intrinsic Activity” value worked out at 0.7.
`CC(C)c1nc(C(=O)N2CCOC3(CCN(CCc4cc(CCOCCC(=O)N(CCNCCc5ccc(O)c6c5OCC(=O)N6)C5CCCCC5)cs4)CC3)C2)cs1` [Example 63, N-Cyclohexyl-N-(2-(2-(5-hydroxy-3-oxo-3,4-dihydro-2H-benzo[b][1,4]oxazin-8-yl)ethylamino)ethyl)-3-(2-(5-(2-(4-(2-isopropylthiazole-4-carbonyl)-1-oxa-4,9-diazaspiro[5.5]undecan-9-yl)ethyl)thiophen-3-yl)ethoxy)propanamide ditrifluoroacetate] showed a 50% inhibitory concentration (IC50) in assay [1] of 2 nM. Also, in assay [2], the EC50 was 158 nM and the “β2 Intrinsic Activity” value is given as 1.1.
The compound `Cc1c(CCOCCC(=O)N(CCNCCc2ccc(O)c3c2OCC(=O)N3)C2CCCC2)cccc1CN1CCC2(CC1)CN(C(=O)c1csc(C(C)C)n1)CCO2` [Example 64, N-Cyclopentyl-N-(2-(2-(5-hydroxy-3-oxo-3,4-dihydro-2H-benzo[b][1,4]oxazin-8-yl)ethylamino)ethyl)-3-(3-((4-(2-isopropylthiazole-4-carbonyl)-1-oxa-4,9-diazaspiro[5.5]undecan-9-yl)methyl)-2-methylphenethoxy)propanamide ditrifluoroacetate] showed an IC50 in assay [1] of 2.51 nM. For the same compound, in assay [2], the EC50 is 20 nM and the “β2 Intrinsic Activity” value was found to be 1.0.
Consider `CCCCN(CCNCCc1ccc(O)c2c1OCC(=O)N2)C(=O)CCOCCc1cc(C)cc(CN2CCC3(CC2)CN(C(=O)c2csc(C(C)C)n2)CCO3)c1` [Example 65, N-Butyl-N-(2-(2-(5-hydroxy-3-oxo-3,4-dihydro-2H-benzo[b][1,4]oxazin-8-yl)ethylamino)ethyl)-3-(3-((4-(2-isopropylthiazole-4-carbonyl)-1-oxa-4,9-diazaspiro[5.5]undecan-9-yl)methyl)-5-methylphenethoxy)propanamide ditrifluoroacetate], for which the IC50 in assay [1] is 0.501 nM. In assay [2], the EC50 is 63.1 nM and the “β2 Intrinsic Activity” value is listed as 1.0.
As for `CCN(CCNCCc1ccc(O)c2[nH]c(=O)sc12)C(=O)CCOCCCc1cccc(CN2CCC3(CC2)CN(C(=O)c2csc(C(C)C)n2)CCO3)c1F` [Example 66, N-Ethyl-3-(3-(2-fluoro-3-((4-(2-isopropylthiazole-4-carbonyl)-1-oxa-4,9-diazaspiro[5.5]undecan-9-yl)methyl)phenyl)propoxy)-N-(2-(2-(4-hydroxy-2-oxo-2,3-dihydrobenzo[d]thiazol-7-yl)ethylamino)ethyl)propanamide ditrifluoroacetate], the IC50 in assay [1] is 0.501 nM. Also, in assay [2], the EC50 is 251 nM and the “β2 Intrinsic Activity” value is given as 0.5.
`CC(C)c1nc(C(=O)N2CCOC3(CCN(Cc4cccc(COCCOCCC(=O)N(CCNCCc5ccc(O)c6c5OCC(=O)N6)C5CCCCC5)c4)CC3)C2)cs1` [Example 67, N-Cyclohexyl-N-(2-(2-(5-hydroxy-3-oxo-3,4-dihydro-2H-benzo[b][1,4]oxazin-8-yl)ethylamino)ethyl)-3-(2-(3-((4-(2-isopropylthiazole-4-carbonyl)-1-oxa-4,9-diazaspiro[5.5]undecan-9-yl)methyl)benzyloxy)ethoxy)propanamide ditrifluoroacetate] gave an IC50 in assay [1] of 0.251 nM. In addition, in assay [2], the EC50 was 31.6 nM and the “β2 Intrinsic Activity” value is given as 0.8.
